From patent US11053204B2, “Pyrimidinyloxy benzene derivatives as herbicides” (FMC Corporation, priority 2015, dated 2021)

Key:
Type in all cases: in vivo
[1] = tested on: Italian ryegrass (Lolium multiflorum); experiment: Test A preemergence, visual injury rating; details: for Plant response rating, Ryegrass, Italian: 31 g ai/ha, 0 to 100 scale, 0 no effect, 100 complete control; for pest or weed control at 125 g/ha: Lolium multiflorum, pre-emergence, 240 h, read-out: Ryegrass, Italian plant response rating
How it was run: (§1)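 Compounds in non-phytotoxic solvent with surfactant applied as soil spray preemergence, or postemergence to plants 2-10 cm at one- to two-leaf stage, in loam/sand. After approximately 10 days in greenhouse, injury rated visually versus untreated controls, 0 (no effect) to 100 (complete control).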

[2] = tested on: barnyardgrass (Echinochloa crus-galli); experiment: Test A preemergence, visual injury rating; details: for Plant response rating, Barnyardgrass: 31 g ai/ha, 0 to 100 scale, 0 no effect, 100 complete control; for pest or weed control at 125 g/ha: Echinochloa crus-galli, pre-emergence, 240 h, read-out: Barnyardgrass plant response rating
How it was run: as §1

[3] = tested on: giant foxtail (Setaria faberii); experiment: Test A preemergence, visual injury rating; details: for Plant response rating, Foxtail, Giant: 31 g ai/ha, 0 to 100 scale, 0 no effect, 100 complete control; for pest or weed control at 125 g/ha: Setaria faberi, pre-emergence, 240 h, read-out: Foxtail, Giant plant response rating
How it was run: as §1

kochia (Kochia scoparia) [4] = experiment: Test A preemergence, visual injury rating; details: for Plant response rating, Kochia: 31 g ai/ha, 0 to 100 scale, 0 no effect, 100 complete control; for pest or weed control at 125 g/ha: Bassia scoparia, pre-emergence, 240 h, read-out: Kochia plant response rating
How it was run: as §1

[5] = tested on: pigweed (Amaranthus retroflexus); experiment: Test A preemergence, visual injury rating; details: for Plant response rating, Pigweed: 31 g ai/ha, 0 to 100 scale, 0 no effect, 100 complete control; for pest or weed control at 125 g/ha: Amaranthus retroflexus, pre-emergence, 240 h, read-out: Pigweed plant response rating
How it was run: as §1

[6] = tested on: ragweed (common ragweed, Ambrosia elatior); experiment: Test A preemergence, visual injury rating; details: for Plant response rating, Ragweed: 31 g ai/ha, 0 to 100 scale, 0 no effect, 100 complete control; for pest or weed control at 125 g/ha: Ambrosia artemisiifolia, pre-emergence, 240 h, read-out: Ragweed plant response rating
How it was run: as §1

[7] = tested on: Italian ryegrass (Lolium multiflorum); experiment: Test A postemergence, visual injury rating; details: 0 is no effect, 100 is complete control; for Ryegrass, Italian plant response rating: 31 g ai/ha, 0 to 100 scale, approximately 10 days; for pest or weed control at 125 g/ha: Lolium multiflorum, post-emergence, 240 h, read-out: Ryegrass, Italian plant response rating (0 to 100 scale)
How it was run: as §1

[8] = tested on: barnyardgrass (Echinochloa crus-galli); experiment: Test A postemergence, visual injury rating; details: 0 is no effect, 100 is complete control; for Barnyardgrass plant response rating: 31 g ai/ha, 0 to 100 scale, approximately 10 days; for pest or weed control at 125 g/ha: Echinochloa crus-galli, post-emergence, 240 h, read-out: Barnyardgrass plant response rating (0 to 100 scale)
How it was run: as §1

[9] = tested on: blackgrass (Alopecurus myosuroides); experiment: Test A postemergence, visual injury rating; details: 0 is no effect, 100 is complete control; for Blackgrass plant response rating: 31 g ai/ha, 0 to 100 scale, approximately 10 days; for pest or weed control at 125 g/ha: Alopecurus myosuroides, post-emergence, 240 h, read-out: Blackgrass plant response rating (0 to 100 scale)
How it was run: as §1

corn (Zea mays) = experiment: Test A postemergence, visual injury rating; details: 0 is no effect, 100 is complete control; for Corn plant response rating: 31 g ai/ha, 0 to 100 scale, approximately 10 days; for plant injury at 125 g/ha: Zea mays, post-emergence, 240 h, read-out: Corn plant response rating (0 to 100 scale)
How it was run: as §1

[10] = tested on: galium (catchweed bedstraw, Galium aparine); experiment: Test A postemergence, visual injury rating; details: 0 is no effect, 100 is complete control; for Galium plant response rating: 31 g ai/ha, 0 to 100 scale, approximately 10 days; for pest or weed control at 125 g/ha: Galium, post-emergence, 240 h, read-out: Galium plant response rating (0 to 100 scale)
How it was run: as §1

[11] = tested on: giant foxtail (Setaria faberii); experiment: Test A postemergence, visual injury rating; details: 0 is no effect, 100 is complete control; for Foxtail, Giant plant response rating: 31 g ai/ha, 0 to 100 scale, approximately 10 days; for pest or weed control at 125 g/ha: Setaria faberi, post-emergence, 240 h, read-out: Foxtail, Giant plant response rating (0 to 100 scale)
How it was run: as §1

kochia (Kochia scoparia) [12] = experiment: Test A postemergence, visual injury rating; details: 0 is no effect, 100 is complete control; for Kochia plant response rating: 31 g ai/ha, 0 to 100 scale, approximately 10 days; for pest or weed control at 125 g/ha: Bassia scoparia, post-emergence, 240 h, read-out: Kochia plant response rating (0 to 100 scale)
How it was run: as §1

[13] = tested on: pigweed (Amaranthus retroflexus); experiment: Test A postemergence, visual injury rating; details: 0 is no effect, 100 is complete control; for Pigweed plant response rating: 31 g ai/ha, 0 to 100 scale, approximately 10 days; for pest or weed control at 125 g/ha: Amaranthus retroflexus, post-emergence, 240 h, read-out: Pigweed plant response rating (0 to 100 scale)
How it was run: as §1

[14] = tested on: ragweed (common ragweed, Ambrosia elatior); experiment: Test A postemergence, visual injury rating; details: 0 is no effect, 100 is complete control; for Ragweed plant response rating: 31 g ai/ha, 0 to 100 scale, approximately 10 days; for pest or weed control at 125 g/ha: Ambrosia artemisiifolia, post-emergence, 240 h, read-out: Ragweed plant response rating (0 to 100 scale)
How it was run: as §1

[15] = tested on: wheat (Triticum aestivum); experiment: Test A postemergence, visual injury rating; details: 0 is no effect, 100 is complete control; for Wheat plant response rating: 31 g ai/ha, 0 to 100 scale, approximately 10 days; for plant injury at 125 g/ha: Triticum aestivum, post-emergence, 240 h, read-out: Wheat plant response rating (0 to 100 scale)
How it was run: as §1

[16] = tested on: barnyardgrass (Echinochloa crus-galli); experiment: Test B flooded paddy test, plant response rating; details: 250 g ai/ha, Flood, scale of 0 to 100 where 0 is no effect and 100 is complete control, 13 to 15 days; for pest or weed control at 250 g/ha: Echinochloa crus-galli, 312 h
How it was run: (§2)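 In-water treatment: compound dosed into 3 cm flood over soil, water level unchanged throughout. Controls run alongside; visual assessment at day 13–15.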

[17] = tested on: ducksalad (Heteranthera limosa); experiment: Test B flooded paddy test, plant response rating; details: 250 g ai/ha, Flood, scale of 0 to 100 where 0 is no effect and 100 is complete control, 13 to 15 days; for pest or weed control at 250 g/ha: Heteranthera limosa, 312 h
How it was run: as §2

rice (Oryza sativa) = experiment: Test B flooded paddy test, plant response rating; details: 250 g ai/ha, Flood, scale of 0 to 100 where 0 is no effect and 100 is complete control, 13 to 15 days; for plant injury at 250 g/ha: Oryza sativa, 312 h
How it was run: as §2

[18] = tested on: sedge, umbrella (small-flower umbrella sedge, Cyperus difformis); experiment: Test B flooded paddy test, plant response rating; details: 250 g ai/ha, Flood, scale of 0 to 100 where 0 is no effect and 100 is complete control, 13 to 15 days; for pest or weed control at 250 g/ha: Cyperus difformis, 312 h
How it was run: as §2

[19] = 125 g ai/ha, 0 to 100 scale (0 no effect, 100 complete control)

SMILES	Plant response rating, Ryegrass, Italian [1]	pest or weed control at 125 g/ha [1, 19] [%]	Plant response rating, Barnyardgrass [2]	pest or weed control at 125 g/ha [2, 19] [%]	Plant response rating, Foxtail, Giant [3]	pest or weed control at 125 g/ha [3, 19] [%]	Plant response rating, Kochia (kochia (Kochia scoparia) [4])	pest or weed control at 125 g/ha (kochia (Kochia scoparia) [4]; [19]) [%]	Plant response rating, Pigweed [5]	Plant response rating, Ragweed [6]	Ryegrass, Italian plant response rating [7]	Barnyardgrass plant response rating [8]	Blackgrass plant response rating [9]	Corn plant response rating (corn (Zea mays))	Galium plant response rating [10]	Foxtail, Giant plant response rating [11]	Kochia plant response rating (kochia (Kochia scoparia) [12])	Pigweed plant response rating [13]	Ragweed plant response rating [14]	Wheat plant response rating [15]	further results
O=C(OCCC(F)(F)F)c1cc(C(F)(F)F)ccc1Oc1ncc(Cl)cn1 [Compound 53]	0	0	0	0	0	0	0	0	0	0	0	0	0	0	0	0	0	0	0	0	pest or weed control at 125 g/ha [5, 19]: 0%; pest or weed control at 125 g/ha [6, 19]: 0%; pest or weed control at 125 g/ha ([7]; 125 g ai/ha): 0%; pest or weed control at 125 g/ha ([8]; 125 g ai/ha): 0%; pest or weed control at 125 g/ha ([9]; 125 g ai/ha): 0%; plant injury at 125 g/ha (corn (Zea mays); 125 g ai/ha): 0%; pest or weed control at 125 g/ha ([10]; 125 g ai/ha): 0%; pest or weed control at 125 g/ha ([11]; 125 g ai/ha): 0%; pest or weed control at 125 g/ha (kochia (Kochia scoparia) [12]; 125 g ai/ha): 0%; pest or weed control at 125 g/ha ([13]; 125 g ai/ha): 0%; pest or weed control at 125 g/ha ([14]; 125 g ai/ha): 0%; plant injury at 125 g/ha ([15]; 125 g ai/ha): 0%; pest or weed control at 250 g/ha [16]: 0%; pest or weed control at 250 g/ha [17]: 0%; plant injury at 250 g/ha (rice (Oryza sativa)): 0%; pest or weed control at 250 g/ha [18]: 0%
Cc1ccc(Oc2ncc(Cl)cn2)c(C(=O)OCCC(F)(F)F)c1 [Compound 54]	0	0	0	0	0	0	0	0	0	0	0	0	0	0	0	0	0	0	0	0	pest or weed control at 125 g/ha [5, 19]: 0%; pest or weed control at 125 g/ha [6, 19]: 0%; pest or weed control at 125 g/ha ([7]; 125 g ai/ha): 0%; pest or weed control at 125 g/ha ([8]; 125 g ai/ha): 0%; pest or weed control at 125 g/ha ([9]; 125 g ai/ha): 0%; plant injury at 125 g/ha (corn (Zea mays); 125 g ai/ha): 0%; pest or weed control at 125 g/ha ([10]; 125 g ai/ha): 0%; pest or weed control at 125 g/ha ([11]; 125 g ai/ha): 0%; pest or weed control at 125 g/ha (kochia (Kochia scoparia) [12]; 125 g ai/ha): 0%; pest or weed control at 125 g/ha ([13]; 125 g ai/ha): 0%; pest or weed control at 125 g/ha ([14]; 125 g ai/ha): 0%; plant injury at 125 g/ha ([15]; 125 g ai/ha): 0%; pest or weed control at 250 g/ha [16]: 0%; pest or weed control at 250 g/ha [17]: 0%; plant injury at 250 g/ha (rice (Oryza sativa)): 0%; pest or weed control at 250 g/ha [18]: 0%
FC(F)(F)C(F)(F)COCc1c(Br)cccc1Oc1ncc(Cl)cn1 [Compound 63]	0	–	40	–	10	–	0	–	0	0	0	0	0	10	0	0	20	20	0	0	Ryegrass, Italian plant response rating [1, 19]: 0; Barnyardgrass plant response rating [2, 19]: 100; Foxtail, Giant plant response rating [3, 19]: 90; Kochia plant response rating (kochia (Kochia scoparia) [4]; [19]): 0; Pigweed plant response rating [5, 19]: 90; Ragweed plant response rating [6, 19]: 0; Ryegrass, Italian plant response rating (0 to 100 scale) ([7]; 125 g ai/ha): 0; Barnyardgrass plant response rating (0 to 100 scale) ([8]; 125 g ai/ha): 10; Blackgrass plant response rating (0 to 100 scale) ([9]; 125 g ai/ha): 0; Corn plant response rating (0 to 100 scale) (corn (Zea mays); 125 g ai/ha): 30; Galium plant response rating (0 to 100 scale) ([10]; 125 g ai/ha): 30; Foxtail, Giant plant response rating (0 to 100 scale) ([11]; 125 g ai/ha): 30; Kochia plant response rating (0 to 100 scale) (kochia (Kochia scoparia) [12]; 125 g ai/ha): 50; Pigweed plant response rating (0 to 100 scale) ([13]; 125 g ai/ha): 60; Ragweed plant response rating (0 to 100 scale) ([14]; 125 g ai/ha): 0; Wheat plant response rating (0 to 100 scale) ([15]; 125 g ai/ha): 0; Plant response rating, Barnyardgrass [16]: 45; Plant response rating, Ducksalad [17]: 100; Plant response rating, Rice (rice (Oryza sativa)): 25; Plant response rating, Sedge, Umbrella [18]: 100
